Laboratory results published in article PMC8556396, “Statin-mediated disruption of Rho GTPase prenylation and activity inhibits respiratory syncytial virus infection” (Communications Biology, 2021).
“And” between values parts separate entries of the source, which are not always exact repeats. Identical values can stand only once. Counter-ions that a name gives are not always drawn.

Experiments:
RSV-GFP [1] = experiment: Time-of-drug addition assay; format: cell-based, Respiratory syncytial virus; details: for antiviral effect by time of addition: 3.5 µM; for RSV-GFP inhibition (% of maximum): MOI 2.0, read 24 h p.i.
Procedure: Time-of-drug addition assays are routinely used to assess the approximate stage of viral infection affected by a drug[25]. HEp-2 cells were seeded to black, flat, microclear-bottom 96-well plates (Greiner Bio-One) and infected with RSV-GFP (MOI 2.0). […]. RSV-GFP infection rates were quantified 24 h p.i to approximately capture a single cycle of infection.

HEp-2 cells = experiment: In vitro cytotoxicity assay (MTT); format: cell-based
RSV-GFP [2] = experiment: RSV-GFP infection of HEp-2 cells, automated imaging, dose-response; format: cell-based, Respiratory syncytial virus; details: for EC50: HEp-2, RSV-GFP MOI 0.5, treated 2 h post-viral exposure
Procedure: HEp-2 cells were seeded to black, flat, microclear-bottom 96-well plates (655096, Greiner Bio-One) at a density of 5000 cells per well and incubated at 37 °C/5% CO2 overnight. The following morning, cells were washed twice with serum-free EMEM and treated with RSV-GFP (MOI 0.5) in a minimal volume of serum-free media for 90 min under frequent agitation. Unbound virus was then removed and replaced with fresh serum-containing EMEM. All drug additions were performed 2 h post-viral exposure, unless otherwise stated. Nuclei were stained with Hoechst 33342 (H3570, Thermo Fisher Scientific) (at a final concentration of 1 µg/mL) 48 h p.i. and imaging was performed using the Cellomics ArrayScan VTI HCS Reader at ×10 magnification (SPARC BioCentre, The Hospital for Sick Children, Toronto, ON).
Automated quantification of infection rates from fluorescent images were performed in CellProfiler (v2.2.0)[86]. Major steps in the image analysis pipeline included: (1) background subtraction and smoothing, (2) segmentation of nuclei, (3) segmentation of GFP-fluorescent area, (4) object masking, and (5) measurement of nuclear number, size, and intensity. Infection rate was quantified from the ratio of nuclei within GFP-fluorescent area to the total number of nuclei (Fig. 1b). This method of analysis accounts for in vitro syncytium formation induced by RSV, whereby a single infected cell may arise from the fusion of multiple cells. Mean nuclear fluorescent intensity and size was quantified as a measure of cell viability. […]

[3] = test system: prenylated proteins (small GTPases); experiment: Measurement of protein prenylation by click chemistry; format: cell-based; details: for GAPDH Normalized Intensity, Farnesylation / GAPDH Normalized Intensity, Geranylgeranylation / Raw Integrated Intensity, Farnesylation / Raw Integrated Intensity, Geranylgeranylation: + statin (atorvastatin 3.5 µM)
Procedure: HEp-2 cells were cultured in the presence of farnesyl alcohol azide (FAA) (SC-294586, Santa Cruz Biotechnology) or geranylgeranyl alcohol azide (GGAA) (C10249, Thermo Fisher Scientific) at a final concentration of 25 µM diluted in 10 mM aqueous NH4OH. Cells were infected with RSV A2 (MOI 0.5) and treated with drugs 2 h post-viral exposure. Cell lysis was performed on ice in RIPA buffer 48 h p.i., and prenylated proteins were reacted with biotin-PEG4-alkyne using the Click-iT Protein Reaction Buffer Kit (C10276, Thermo Fisher Scientific) as per the manufacturer’s protocol. Prenylated proteins in the processed samples were then visualized by western blot using a streptavidin-HRP conjugate (RPN1231, Cytiva) and Clarity ECL Substrate (1705061, Bio-Rad). Relative protein levels were quantified by densitometry in ImageJ (v1.52b).

CC(C)c1c(C(=O)Nc2ccccc2)c(-c2ccccc2)c(-c2ccc(F)cc2)n1CC[C@@H](O)C[C@@H](O)CC(=O)O [Atorvastatin, Atorvastatin calcium salt trihydrate]
antiviral effect by time of addition (RSV-GFP [1]; added 8–22 h p.i.): loss in antiviral effect | antiviral effect by time of addition (RSV-GFP [1]; added 2 h pre-infection vs. 2–6 h post-infection): No difference in antiviral effect | RSV-GFP inhibition (% of maximum) (RSV-GFP [1]; atorvastatin 3.5 µM added 2 h p.i.): 93.8741 % of maximum and 100 % of maximum and 63.7076 % of maximum and 87.4617 % of maximum | RSV-GFP inhibition (% of maximum) (RSV-GFP [1]; atorvastatin 3.5 µM added 4 h p.i.): 79.9181 % of maximum and 67.4308 % of maximum and 95.7721 % of maximum and 95.1175 % of maximum | RSV-GFP inhibition (% of maximum) (RSV-GFP [1]; atorvastatin 3.5 µM added 6 h p.i.): 73.0198 % of maximum and 92.897 % of maximum and 83.1029 % of maximum and 75.3925 % of maximum | RSV-GFP inhibition (% of maximum) (RSV-GFP [1]; atorvastatin 3.5 µM added 8 h p.i.): 73.881 % of maximum and 38.0526 % of maximum and 68.6457 % of maximum and 56.4404 % of maximum | RSV-GFP inhibition (% of maximum) (RSV-GFP [1]; atorvastatin 3.5 µM added -2 h p.i.): 95.6726 % of maximum and 68.3345 % of maximum and 91.0474 % of maximum and 75.5348 % of maximum | cellular viability by MTT assay at EC50 (HEp-2 cells): no significant difference from baseline | doses with significant reduction in viability (HEp-2 cells; human): greater than 10.0 µM | EC50 (RSV-GFP [2]): 2560 nM | EC50 (RSV-GFP [2]; human respiratory syncytial virus, HEp-2, 2 h): 2600 nM | inhibition at 0.1 µM (RSV-GFP [2]; human respiratory syncytial virus, HEp-2, 48 h, read-out: RSV-GFP inhibition (%), log Conc (uM) -1, replicate values): 5.55% | GAPDH Normalized Intensity, Farnesylation ([3]; + RSV): 1.959 and 2.027 | GAPDH Normalized Intensity, Geranylgeranylation ([3]; + RSV): 0.9753 and 1.167 | Raw Integrated Intensity, Farnesylation ([3]; + RSV): 2027541 and 2238487 | Raw Integrated Intensity, Geranylgeranylation ([3]; + RSV): 1062035 and 1238827 | GAPDH Normalized Intensity, Farnesylation ([3]; - RSV): 1.992 and 1.8833 | GAPDH Normalized Intensity, Geranylgeranylation ([3]; - RSV): 0.8805 and 0.8849 | Raw Integrated Intensity, Geranylgeranylation ([3]; - RSV): 899910 and 921628 | Raw Integrated Intensity, Farnesylation ([3]; - RSV, one value per lane): 1842503 and 1809411 | effect on virus-induced small GTPase prenylation ([3]; atorvastatin 3.5 µM, 48 h p.i.): largely mitigate these virus-induced increases to small GTPase prenylation
